What is called IC50 is the midpoint of a concentration-inhibition curve.

Among the data in BindingDB's records for patent US20240115574 (The Johns Hopkins University, 2024) are IC50 values, retold here.

In this test the target is T1, Sphingomyelin phosphodiesterase 3 (Homo sapiens, UniProt Q9NY59).
T1 sequence (Q9NY59 whole entry): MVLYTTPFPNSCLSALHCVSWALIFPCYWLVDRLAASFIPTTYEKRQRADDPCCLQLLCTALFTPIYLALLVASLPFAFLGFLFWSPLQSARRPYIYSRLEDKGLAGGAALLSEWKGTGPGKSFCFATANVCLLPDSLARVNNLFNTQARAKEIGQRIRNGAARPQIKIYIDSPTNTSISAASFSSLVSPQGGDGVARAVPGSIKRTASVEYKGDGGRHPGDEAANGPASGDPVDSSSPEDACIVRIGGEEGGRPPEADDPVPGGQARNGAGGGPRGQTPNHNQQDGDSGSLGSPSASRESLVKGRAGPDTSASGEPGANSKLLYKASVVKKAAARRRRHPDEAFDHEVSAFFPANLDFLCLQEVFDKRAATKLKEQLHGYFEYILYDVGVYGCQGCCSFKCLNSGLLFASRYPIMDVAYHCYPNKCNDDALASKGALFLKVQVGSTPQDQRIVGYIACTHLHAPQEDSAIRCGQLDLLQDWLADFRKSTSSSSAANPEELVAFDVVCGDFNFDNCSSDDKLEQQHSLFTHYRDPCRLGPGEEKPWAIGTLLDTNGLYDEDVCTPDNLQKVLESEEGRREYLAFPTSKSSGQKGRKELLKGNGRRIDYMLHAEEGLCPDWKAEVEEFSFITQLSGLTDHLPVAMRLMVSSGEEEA
The test can be described thus: Not found.
From the text: Not found

Each structure is given as a SMILES string.

For the molecule `COc1ccc(-n2cnc3c(N4CC[C@@H](NC(C)=O)C4)nc(C)nc32)cc1OC` [US20240115574, Entry 2-PROV], the concentration for half-maximal inhibition (IC50) was over 100 µM.

Consider `COc1ccc(-n2c(C)nc3c(N4CC[C@@H](NC(C)=O)C4)ncnc32)cc1OC` [US20240115574, Entry 5-PROV], for which the IC50 is over 100 µM.

On to `COc1ccc(-c2c(C)nn3c(N4CC[C@@H](NC(C)=O)C4)nc(C)nc23)cc1OC` [US20240115574, Entry 36-PROV], for which the IC50 was over 100 µM.

`COc1ccc(-n2cnc3c(N4CC[C@@H](NC(C)=O)C4)ncnc32)cc1OC` [US20240115574, Entry 6-PROV] gave an IC50 of over 100 µM.

`COc1ccc(-c2c3nc(C)nc(N4CC[C@@H](NC(C)=O)C4)c3nn2C)cc1OC` [US20240115574, Entry 12-PROV] had an IC50 of over 100 µM.

In turn, `COc1ccc(-c2nn(C)c3c(N4CC[C@@H](NC(C)=O)C4)nc(C)nc23)cc1OC` [US20240115574, Entry 13-PROV] had a 50% inhibitory concentration (IC50) of over 100 µM.

The molecule `COc1ccc(-n2ncc3c(N4CC[C@@H](NC(C)=O)C4)nc(C)nc32)cc1OC` [US20240115574, Entry 10-PROV] showed an IC50 of over 100 µM.

In turn, `COc1ccc(-c2c(C)nn3c(N4CC[C@@H](NC(C)=O)C4)cc(C)nc23)cc1OC` [US20240115574, Entry 7-PROV] returned an IC50 of over 100 µM.
